Like-named read-outs stand apart in the source and are kept apart here.
Legend:
U87MG [1] = assay: Cell proliferation assay MTT, U87MG; settings: read-out: Cytotoxicity IC50 Glioblastoma U87MG, 72 hr treated
Human HDAC8 = Human HDAC8 (Homo sapiens (Human), UniProt Q9BY41); assay: HDAC enzymatic assay, HDAC8; type: biochemical; settings: 10-dose IC50 mode with a 3-fold serial dilution; read-out: HDAC subtypes IC50 HDAC8
Experimental: (§1) The IC50 values for aforementioned compounds against HDACs were determined. HDAC 1 to 11 can be assayed by using acetylated AMC-labeled peptide substrate.
(§2) Human HDAC1 GenBank Accession No. NM_004964): Full length with C-terminal GST tag, MW=79.9 kDa, Human HDAC2 (GenBank Accession No. Q92769): Full length with C-terminal His tag, MW=60 kDa. Human HDAC3/NcoR2 (GenBank Accession No. […] for HDAC3, GenBank Accession No. NM_006312 for NcoR2): Complex of human HDAC3, full length with C-terminal His tag, MW=49.7 kDa, and human NCOR2, N-terminal GST tag, MW=39 kDa. Human HDAC6 (GenBank Accession No. BC069243): Full length with N-terminal GST tag, MW=159 kDa. Human HDAC8 (GenBank Accession No. NM018486): Full length, MW=42 kDa, expressed in an E. coli expression system.
(§3) 50 μM HDAC substrate. 1% DMSO final. Incubation for 2 hours at 30° C.

in vitro [2] = settings: monkey
LNCap [3] = assay: Cell proliferation assay MTT, LNCaP; settings: read-out: Cytotoxicity IC50 Prostate LNCap, 72 hr treated
MOLM13 = assay: Cell proliferation assay MTT, MOLM13
Human HDAC1 = Human HDAC1 (Homo sapiens (Human), UniProt Q13547); assay: HDAC enzymatic assay, HDAC1; type: biochemical; settings: 10-dose IC50 mode with a 3-fold serial dilution; read-out: HDAC subtypes IC50 HDAC1
Experimental: as §1, §2
(§4) Human HDAC1, Human HDAC2, Human HDAC3/NcoR2, Human HDAC6, Human HDAC10, and Human HDAC11 were all expressed by baculovirus expression system in Sf9 cells.
as §3

HepG2 [4] = assay: Cell proliferation assay MTT, HepG2; settings: read-out: Cytotoxicity IC50 Liver HepG2, 72 hr treated
Human HDAC6 = Human HDAC6 (Homo sapiens (Human), UniProt Q9UBN7); assay: HDAC enzymatic assay, HDAC6; type: biochemical; settings: 10-dose IC50 mode with a 3-fold serial dilution; read-out: HDAC subtypes IC50 HDAC6
Experimental: as §1, §2, §4, §3

MV4-11 = assay: Cell proliferation assay MTT, MV4-11
PANC1 [5] = assay: Cell proliferation assay MTT, PANC1; settings: read-out: Cytotoxicity IC50 Pancreas PANC1, 72 hr treated
A549 [6] = assay: Cell proliferation assay MTT, A549; settings: read-out: Cytotoxicity IC50 Lung A549, 72 hr treated
in vitro [7] = settings: human
HL60 = assay: Cell proliferation assay MTT, HL60; settings: read-out: Cytotoxicity IC50 Leukemia HL60, 72 hr treated
HepG2 [8] = settings: human, 72 h
A549 [9] = settings: human, 72 h
PANC1 [10] = settings: human, 72 h
Human HDAC11 = Human HDAC11 (Homo sapiens (Human), UniProt Q96DB2); assay: HDAC enzymatic assay, HDAC11; type: biochemical; settings: 10-dose IC50 mode with a 3-fold serial dilution; read-out: HDAC subtypes IC50 HDAC11
Experimental: as §1, §2, §4, §3

LNCap [11] = settings: human, 72 h
U87MG [12] = settings: human, 72 h
[13] = read-out: Cytotoxicity IC50 Leukemia MOLM13, MTT assay, 72 hr treated
[14] = read-out: Cytotoxicity IC50 Leukemia MV4-11, MTT assay, 72 hr treated
[15] = human, MOLM13 leukemia cells, 72 h
[16] = human, MV4-11 leukemia cells, 72 h

Chain of Human HDAC6 (Q9UBN7 whole entry): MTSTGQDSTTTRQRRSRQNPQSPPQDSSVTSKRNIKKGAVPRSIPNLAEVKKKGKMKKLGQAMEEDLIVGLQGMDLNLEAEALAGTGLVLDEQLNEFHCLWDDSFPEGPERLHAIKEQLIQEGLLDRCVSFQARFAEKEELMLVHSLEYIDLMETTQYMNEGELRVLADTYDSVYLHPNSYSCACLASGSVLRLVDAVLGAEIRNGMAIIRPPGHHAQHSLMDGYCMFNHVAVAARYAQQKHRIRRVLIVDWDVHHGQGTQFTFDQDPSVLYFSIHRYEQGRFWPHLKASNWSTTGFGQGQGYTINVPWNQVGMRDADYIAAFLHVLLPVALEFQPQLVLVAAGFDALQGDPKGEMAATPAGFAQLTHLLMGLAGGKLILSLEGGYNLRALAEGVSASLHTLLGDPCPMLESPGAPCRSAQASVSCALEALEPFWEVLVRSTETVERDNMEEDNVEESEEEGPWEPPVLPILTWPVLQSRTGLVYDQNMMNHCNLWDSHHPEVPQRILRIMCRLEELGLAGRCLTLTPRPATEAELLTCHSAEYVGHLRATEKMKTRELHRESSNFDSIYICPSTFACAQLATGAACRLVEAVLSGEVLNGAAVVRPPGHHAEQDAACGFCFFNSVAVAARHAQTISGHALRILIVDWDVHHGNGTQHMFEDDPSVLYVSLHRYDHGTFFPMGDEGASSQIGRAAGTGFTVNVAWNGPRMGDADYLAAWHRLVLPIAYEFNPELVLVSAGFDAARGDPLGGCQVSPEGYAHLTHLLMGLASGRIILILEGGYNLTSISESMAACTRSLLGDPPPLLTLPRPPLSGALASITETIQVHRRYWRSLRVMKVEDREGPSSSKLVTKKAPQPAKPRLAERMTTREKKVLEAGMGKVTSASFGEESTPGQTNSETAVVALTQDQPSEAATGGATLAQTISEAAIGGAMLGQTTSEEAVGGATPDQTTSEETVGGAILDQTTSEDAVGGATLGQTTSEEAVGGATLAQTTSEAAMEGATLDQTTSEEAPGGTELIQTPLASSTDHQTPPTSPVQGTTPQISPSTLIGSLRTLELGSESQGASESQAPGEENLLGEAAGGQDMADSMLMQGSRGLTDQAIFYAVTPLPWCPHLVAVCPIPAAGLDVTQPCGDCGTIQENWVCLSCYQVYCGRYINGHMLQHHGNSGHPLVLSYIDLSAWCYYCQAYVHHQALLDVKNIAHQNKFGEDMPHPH
Chain of Human HDAC11 (Q96DB2 whole entry): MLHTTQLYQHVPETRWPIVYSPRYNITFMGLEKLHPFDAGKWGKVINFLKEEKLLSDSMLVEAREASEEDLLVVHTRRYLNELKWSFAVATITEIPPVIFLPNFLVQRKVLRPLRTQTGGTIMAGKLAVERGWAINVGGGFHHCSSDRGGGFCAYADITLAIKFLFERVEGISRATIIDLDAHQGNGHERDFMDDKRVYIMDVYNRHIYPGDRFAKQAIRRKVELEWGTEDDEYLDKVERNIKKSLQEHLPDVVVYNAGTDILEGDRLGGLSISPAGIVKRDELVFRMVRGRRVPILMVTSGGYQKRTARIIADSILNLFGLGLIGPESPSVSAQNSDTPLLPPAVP
Chain of Human HDAC1 (Q13547 whole entry): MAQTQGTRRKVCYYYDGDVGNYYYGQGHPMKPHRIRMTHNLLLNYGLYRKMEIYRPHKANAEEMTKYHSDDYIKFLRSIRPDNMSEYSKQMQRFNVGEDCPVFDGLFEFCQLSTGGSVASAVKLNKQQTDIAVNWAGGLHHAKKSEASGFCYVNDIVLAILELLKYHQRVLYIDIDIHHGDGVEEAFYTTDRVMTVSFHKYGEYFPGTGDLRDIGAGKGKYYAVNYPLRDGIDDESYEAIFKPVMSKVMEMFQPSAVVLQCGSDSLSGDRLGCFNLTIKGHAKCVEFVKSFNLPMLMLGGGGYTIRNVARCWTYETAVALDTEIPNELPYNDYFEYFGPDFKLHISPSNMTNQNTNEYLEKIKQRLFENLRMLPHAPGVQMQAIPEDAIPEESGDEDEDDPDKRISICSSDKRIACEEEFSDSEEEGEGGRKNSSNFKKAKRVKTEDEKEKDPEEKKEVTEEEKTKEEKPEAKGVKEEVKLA
Chain of Human HDAC8 (Q9BY41 whole entry): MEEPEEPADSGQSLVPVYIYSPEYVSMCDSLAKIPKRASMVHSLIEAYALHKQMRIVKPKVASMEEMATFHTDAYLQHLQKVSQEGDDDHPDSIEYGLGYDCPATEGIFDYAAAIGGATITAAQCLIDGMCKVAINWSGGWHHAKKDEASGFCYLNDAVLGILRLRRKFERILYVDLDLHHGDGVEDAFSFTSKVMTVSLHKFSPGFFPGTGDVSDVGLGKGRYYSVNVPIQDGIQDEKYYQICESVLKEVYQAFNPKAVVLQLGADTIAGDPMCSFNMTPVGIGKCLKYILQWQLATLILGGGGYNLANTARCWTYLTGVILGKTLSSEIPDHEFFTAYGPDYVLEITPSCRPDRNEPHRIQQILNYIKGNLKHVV

| IC50 (Human HDAC8) [µM] | IC50 (Human HDAC1) [µM] | IC50 (Human HDAC6) [µM] | IC50 (HepG2 [8]) [µM] | IC50 (A549 [9]) [µM] | IC50 at 72 h (in vitro [2]) [µM] | IC50 (PANC1 [10]) [µM] | IC50 (Human HDAC11) [µM] | IC50 (LNCap [11]) [µM] | IC50 at 72 h (in vitro [7]) [µM] | IC50 (U87MG [12]) [µM] | SMILES | IC50 (HL60) [µM] | IC50 (MOLM13; [15]) [µM] | IC50 (MV4-11; [16]) [µM] | also measured |
| --- | --- | --- | --- | --- | --- | --- | --- | --- | --- | --- | --- | --- | --- | --- | --- |
| 2.75 | 8.28 | 0.028 | 6.12 ± 0.33 | 8.04 ± 0.28 | 156.4 ± 0.42 | 6.54 ± 0.11 | 5.5 | 2.97 ± 0.22 | 147.1 ± 0.51 | 4.28 ± 0.67 | O=C(NO)c1ccc(Cn2c(=O)n(CCc3ccccc3)c(=O)c3ccc(O)cc32)cc1 [Compound 4, N-hydroxy-4-((7-hydroxy-2,4-dioxo-3-phenethyl-3,4-dihydroquinazolin-1(2H)-yl)methyl)benzamide] | 0.67 ± 0.09 | 0.81 ± 0.09 | 0.75 ± 0.11 | – |
| 1.64 | 9.54 | 0.021 | 2.74 ± 0.29 | 2.28 ± 0.27 | 85.74 ± 0.17 | 3.52 ± 0.09 | – | 1.07 ± 0.14 | 75.79 ± 0.12 | 2.1 ± 0.06 | O=C(NO)c1ccc(Cn2c(=O)n(CCc3ccccc3)c(=O)c3ccc(Cl)cc32)cc1 [Compound 8, 4-((7-chloro-2,4-dioxo-3-phenethyl-3,4-dihydroquinazolin-1(2H)-yl)methyl)-N-hydroxybenzamide] | 0.44 ± 0.04 | 0.48 ± 0.08 | 0.37 ± 0.02 | – |
| 1.05 | 10.8 | 0.023 | 6.82 ± 0.12 | 6.35 ± 0.11 | 116 ± 0.23 | > 10 | 14.7 | 4.25 ± 0.21 | 83.81 ± 0.19 | 6.31 ± 0.63 | O=C(NO)c1ccc(Cn2c(=O)n(CCc3ccc(F)cc3)c(=O)c3ccccc32)cc1 [Compound 14, 4-((3-(4-fluorophenethyl)-2,4-dioxo-3,4-dihydroquinazolin-1(2H)-yl)methyl)-N-hydroxybenzamide] | 1.37 ± 0.07 | 1.62 ± 0.09 | 1.77 ± 0.05 | – |
| – | – | – | 6.99 ± 1.07 | 7.07 ± 0.42 | 160.3 ± 0.23 | 8.73 ± 0.24 | – | 6.05 ± 0.31 | 163.2 ± 0.27 | 6.28 ± 0.12 | O=C(Cc1ccc(Cn2c(=O)n(CCc3ccccc3)c(=O)c3ccccc32)cc1)NO [Compound 16, 2-(4-((2,4-dioxo-3-phenethyl-3,4-dihydroquinazolin-1(2H)-yl)methyl)phenyl)-N-hydroxyacetamide] | 2.77 ± 0.04 | 3.29 ± 0.16 | 3.04 ± 0.08 | – |
| 1.16 | 13.4 | 0.057 | 6.64 ± 0.92 | 8.96 ± 0.17 | 123.2 ± 0.33 | 8.47 ± 0.04 | 16.7 | 5.74 ± 0.51 | 100.5 ± 0.37 | 6.13 ± 0.78 | O=C(NO)c1ccc(Cn2c(=O)n(CCc3ccccc3)c(=O)c3cc(F)ccc32)cc1 [Compound 17, 4-((6-fluoro-2,4-dioxo-3-phenethyl-3,4-dihydroquinazolin-1(2H)-yl)methyl)-N-hydroxybenzamide] | 2.37 ± 0.11 | 356 ± 0.09 | 3.13 ± 0.09 | – |
| – | – | – | 2.75 ± 0.02 | 2.98 ± 0.12 | 37.82 ± 0.03 | 4.29 ± 0.08 | – | 1.87 ± 0.18 | 32.7 ± 0.03 | 2.64 ± 0.04 | O=C(Cc1ccc(Cn2c(=O)n(CCc3ccccc3)c(=O)c3ccccc32)c(F)c1)NO [Compound 19, 2-(4-((2,4-dioxo-3-phenethyl-3,4-dihydroquinazolin-1(2H)-yl)methyl)-3-fluorophenyl)-N-hydroxyacetamide] | 1.68 ± 0.09 | 1.74 ± 0.08 | 1.87 ± 0.03 | – |
| 2.52 | 10.9 | 0.17 | 6.82 ± 0.44 | 7.44 ± 0.12 | 127.4 ± 0.28 | 8.73 ± 0.71 | 52.1 | 5.38 ± 0.41 | 135.1 ± 0.39 | 5.68 ± 0.19 | Cc1ccc2c(=O)n(CCc3ccccc3)c(=O)n(Cc3ccc(C(=O)NO)cc3)c2c1 [Compound 22, N-hydroxy-4-((7-methyl-2,4-dioxo-3-phenethyl-3,4-dihydroquinazolin-1(2H)-yl)methyl)benzamide] | 1.46 ± 0.08 | 1.77 ± 0.05 | 1.64 ± 0.07 | – |
| – | – | – | 4.24 ± 0.03 | 4.21 ± 0.03 | 95.27 ± 0.58 | 5.12 ± 0.11 | – | 4.05 ± 0.07 | 92.11 ± 0.69 | 4.12 ± 0.06 | N#Cc1ccc2c(=O)n(CCc3ccccc3)c(=O)n(Cc3ccc(CC(=O)NO)cc3)c2c1 [Compound 23, 2-(4-((7-cyano-2,4-dioxo-3-phenethyl-3,4-dihydroquinazolin-1(2H)-yl)methyl)phenyl)-N-hydroxyacetamide] | 1.25 ± 0.08 | 2.32 ± 0.07 | 1.19 ± 0.07 | – |
| 0.428 | 13.2 | 0.01 | 4.03 ± 0.11 | 4.58 ± 0.21 | 93.26 ± 0.25 | 5.03 ± 0.19 | 10.7 | 0.96 ± 0.02 | 84.34 ± 0.73 | 3.77 ± 0.25 | O=C(NO)c1ccc(Cn2c(=O)n(CCc3cccc(F)c3)c(=O)c3ccccc32)cc1 [Compound 26, 4-((3-(3-fluorophenethyl)-2,4-dioxo-3,4-dihydroquinazolin-1(2H)-yl)methyl)-N-hydroxybenzamide] | 3.12 ± 0.08 | 4.01 ± 0.06 | 3.71 ± 0.11 | – |

| SMILES | IC50 (Human HDAC8) [µM] | IC50 (Human HDAC1) [µM] | IC50 (Human HDAC6) [µM] | IC50 (HepG2 [8]) [µM] | IC50 (A549 [9]) [µM] | IC50 at 72 h (in vitro [2]) [µM] | IC50 (PANC1 [10]) [µM] | IC50 (Human HDAC11) [µM] | IC50 (LNCap [11]) [µM] | IC50 at 72 h (in vitro [7]) [µM] | IC50 (U87MG [12]) [µM] | IC50 (HL60) [µM] | IC50 (MOLM13; [15]) [µM] | IC50 (MV4-11; [16]) [µM] | also measured |
| --- | --- | --- | --- | --- | --- | --- | --- | --- | --- | --- | --- | --- | --- | --- | --- |
| N#Cc1ccc2c(=O)n(CCc3ccccc3)c(=O)n(Cc3ccc(C(=O)NO)cc3)c2c1 [Compound 3, 4-((7-cyano-2,4-dioxo-3-phenethyl-3,4-dihydroquinazolin-1(2H)-yl)methyl)-N-hydroxybenzamide] | 1.3 | 12 | 13.5 | – | – | – | – | – | – | – | – | > 10 | – | – | IC50 (U87MG [1]): > 10 µM; IC50 at 72 h (in vitro [2]; Vero normal cells): > 10 µM; IC50 (LNCap [3]): > 10 µM; IC50 (MOLM13; [13]): > 10 µM; IC50 (HepG2 [4]): > 10 µM; IC50 (MV4-11; [14]): > 10 µM; IC50 (PANC1 [5]): > 10 µM; IC50 (A549 [6]): > 10 µM; IC50 at 72 h (in vitro [7]; FHs173We normal cells): > 200 µM |
| O=C(NO)c1ccc(Cn2c(=O)n(CCc3ccccc3)c(=O)c3cc(Cl)ccc32)cc1 [Compound 9, 4-((6-chloro-2,4-dioxo-3-phenethyl-3,4-dihydroquinazolin-1(2H)-yl)methyl)-N-hydroxybenzamide] | – | 18.9 | 0.035 | – | – | – | – | – | – | – | – | 2.71 ± 0.05 | – | – | IC50 (U87MG [1]): 2.26 ± 0.13 µM; IC50 at 72 h (in vitro [2]; Vero normal cells): 77.51 ± 0.14 µM; IC50 (LNCap [3]): 1.01 ± 0.11 µM; IC50 (MOLM13; [13]): 2.82 ± 0.07 µM; IC50 (HepG2 [4]): 2.03 ± 0.47 µM; IC50 (MV4-11; [14]): 2.78 ± 0.03 µM; IC50 (PANC1 [5]): 4.05 ± 0.12 µM; IC50 (A549 [6]): 2.45 ± 0.51 µM; IC50 at 72 h (in vitro [7]; FHs173We normal cells): 70.34 ± 0.12 µM |
| COc1ccccc1CCn1c(=O)c2ccccc2n(Cc2ccc(C(=O)NO)cc2)c1=O [Compound 15, N-hydroxy-4-((3-(2-methoxyphenethyl)-2,4-dioxo-3,4-dihydroquinazolin-1(2H)-yl)methyl)benzamide] | 0.525 | – | 0.011 | – | – | – | – | 34.4 | – | – | – | 1.22 ± 0.08 | – | – | IC50 (U87MG [1]): 7.08 ± 0.8 µM; IC50 at 72 h (in vitro [2]; Vero normal cells): 96.92 ± 0.11 µM; IC50 (LNCap [3]): 5.71 ± 0.32 µM; IC50 (MOLM13; [13]): 1.47 ± 0.07 µM; IC50 (HepG2 [4]): 7.11 ± 0.28 µM; IC50 (MV4-11; [14]): 1.65 ± 0.03 µM; IC50 (PANC1 [5]): > 10 µM; IC50 (A549 [6]): 5.69 ± 0.21 µM; IC50 at 72 h (in vitro [7]; FHs173We normal cells): 55.44 ± 0.09 µM |
